How the values were obtained:
Type in all cases: biochemical
JAK3 = molecular target: T1, JAK3 (Homo sapiens, UniProt P52333); test: Inhibition of a panel of kinases, in vitro HotSpot kinase assay: JAK3; conditions: D-compounds panel data; 1 μM ATP; read-out: IC50 JAK3
T1 sequence (P52333 1-1124): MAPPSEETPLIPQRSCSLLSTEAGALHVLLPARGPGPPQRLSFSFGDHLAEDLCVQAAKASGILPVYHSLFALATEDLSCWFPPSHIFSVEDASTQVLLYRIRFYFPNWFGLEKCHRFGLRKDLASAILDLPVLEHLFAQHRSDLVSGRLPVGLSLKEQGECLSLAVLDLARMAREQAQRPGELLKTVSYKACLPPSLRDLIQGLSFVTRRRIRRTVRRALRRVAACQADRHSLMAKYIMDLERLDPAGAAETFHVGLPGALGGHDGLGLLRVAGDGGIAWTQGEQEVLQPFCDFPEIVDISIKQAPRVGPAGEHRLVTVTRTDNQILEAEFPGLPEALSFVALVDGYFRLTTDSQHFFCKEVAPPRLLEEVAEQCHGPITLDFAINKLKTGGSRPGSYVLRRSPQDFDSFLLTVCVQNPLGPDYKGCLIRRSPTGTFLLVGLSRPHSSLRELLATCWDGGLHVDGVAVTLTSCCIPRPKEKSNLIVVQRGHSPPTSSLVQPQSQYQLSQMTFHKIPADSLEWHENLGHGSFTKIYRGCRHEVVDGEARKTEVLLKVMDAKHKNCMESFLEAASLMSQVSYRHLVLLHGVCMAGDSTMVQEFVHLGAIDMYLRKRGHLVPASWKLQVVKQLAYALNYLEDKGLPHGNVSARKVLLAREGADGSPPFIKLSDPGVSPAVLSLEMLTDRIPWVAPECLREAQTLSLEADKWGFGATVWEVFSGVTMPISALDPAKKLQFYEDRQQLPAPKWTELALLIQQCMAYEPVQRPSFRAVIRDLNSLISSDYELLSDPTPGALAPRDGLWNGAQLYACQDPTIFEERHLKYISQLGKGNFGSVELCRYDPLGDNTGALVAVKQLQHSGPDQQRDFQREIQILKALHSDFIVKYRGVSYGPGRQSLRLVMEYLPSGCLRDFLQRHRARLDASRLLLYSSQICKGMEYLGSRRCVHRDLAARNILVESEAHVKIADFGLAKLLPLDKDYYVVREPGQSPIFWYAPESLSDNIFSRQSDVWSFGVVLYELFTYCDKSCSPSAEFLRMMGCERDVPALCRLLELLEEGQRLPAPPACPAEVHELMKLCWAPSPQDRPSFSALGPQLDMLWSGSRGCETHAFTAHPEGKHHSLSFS

ITK = molecular target: T2, ITK (Homo sapiens, UniProt Q08881); test: Inhibition of a panel of kinases, in vitro HotSpot kinase assay: ITK; conditions: D-compounds panel data; 1 μM ATP
T2 sequence (Q08881 1-620): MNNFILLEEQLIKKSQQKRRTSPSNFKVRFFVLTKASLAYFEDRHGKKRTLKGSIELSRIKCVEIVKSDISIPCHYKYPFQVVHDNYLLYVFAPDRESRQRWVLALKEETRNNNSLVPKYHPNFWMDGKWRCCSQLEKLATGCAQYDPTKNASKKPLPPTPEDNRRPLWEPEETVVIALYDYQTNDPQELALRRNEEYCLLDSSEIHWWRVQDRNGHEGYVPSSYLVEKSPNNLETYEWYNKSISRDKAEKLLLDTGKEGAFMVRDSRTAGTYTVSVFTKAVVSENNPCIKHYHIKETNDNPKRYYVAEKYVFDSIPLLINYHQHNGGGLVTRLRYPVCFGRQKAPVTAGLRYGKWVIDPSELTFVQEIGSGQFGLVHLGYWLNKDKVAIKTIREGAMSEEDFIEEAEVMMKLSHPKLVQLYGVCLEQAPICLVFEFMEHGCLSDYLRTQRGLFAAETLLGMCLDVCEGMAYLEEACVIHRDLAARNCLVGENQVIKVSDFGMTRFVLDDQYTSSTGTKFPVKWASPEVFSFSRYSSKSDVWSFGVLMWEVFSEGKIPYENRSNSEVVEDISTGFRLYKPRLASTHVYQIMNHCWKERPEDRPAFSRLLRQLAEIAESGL
Protocol: (§1) The degree of inhibition of a panel of kinases is determined using the in vitro HotSpot kinase assay (purified enzymes, ^33P-ATP, an appropriate substrate and 1 μM ATP).

EGFR = EGFR (Homo sapiens, UniProt P00533); test: Inhibition of a panel of kinases, in vitro HotSpot kinase assay: EGFR; conditions: D-compounds panel data; 1 μM ATP
Chain of EGFR (P00533 25-1210): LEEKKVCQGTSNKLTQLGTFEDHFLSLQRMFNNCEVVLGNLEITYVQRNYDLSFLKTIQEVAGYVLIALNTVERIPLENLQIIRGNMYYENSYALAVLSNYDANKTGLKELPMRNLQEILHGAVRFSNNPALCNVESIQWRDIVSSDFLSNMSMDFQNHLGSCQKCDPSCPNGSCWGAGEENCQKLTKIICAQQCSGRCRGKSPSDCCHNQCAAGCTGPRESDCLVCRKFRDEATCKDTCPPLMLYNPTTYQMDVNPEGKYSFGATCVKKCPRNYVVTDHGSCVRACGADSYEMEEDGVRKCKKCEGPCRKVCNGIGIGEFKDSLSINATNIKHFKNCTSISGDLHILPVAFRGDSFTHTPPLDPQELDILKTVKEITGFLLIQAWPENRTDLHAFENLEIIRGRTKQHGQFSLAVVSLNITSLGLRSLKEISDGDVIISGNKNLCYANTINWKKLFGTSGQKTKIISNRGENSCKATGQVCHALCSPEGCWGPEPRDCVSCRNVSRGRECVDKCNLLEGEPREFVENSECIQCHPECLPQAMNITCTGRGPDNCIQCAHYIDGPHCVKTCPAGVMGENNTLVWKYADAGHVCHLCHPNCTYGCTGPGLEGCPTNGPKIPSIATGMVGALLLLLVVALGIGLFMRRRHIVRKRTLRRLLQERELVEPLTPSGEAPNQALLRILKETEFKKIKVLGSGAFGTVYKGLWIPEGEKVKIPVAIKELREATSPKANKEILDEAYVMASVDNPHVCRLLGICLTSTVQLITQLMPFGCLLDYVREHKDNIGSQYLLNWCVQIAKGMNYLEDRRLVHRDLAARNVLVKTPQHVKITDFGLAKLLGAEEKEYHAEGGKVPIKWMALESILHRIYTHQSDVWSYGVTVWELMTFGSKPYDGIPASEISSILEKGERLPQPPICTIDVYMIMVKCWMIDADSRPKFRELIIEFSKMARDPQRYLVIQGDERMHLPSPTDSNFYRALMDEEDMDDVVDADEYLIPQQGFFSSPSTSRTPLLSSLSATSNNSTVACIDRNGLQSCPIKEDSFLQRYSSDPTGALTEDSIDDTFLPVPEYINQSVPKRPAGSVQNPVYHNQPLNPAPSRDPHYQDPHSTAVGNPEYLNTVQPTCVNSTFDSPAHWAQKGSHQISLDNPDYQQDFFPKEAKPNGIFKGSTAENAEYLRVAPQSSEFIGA
Protocol: as §1

SRC = SRC (Homo sapiens, UniProt P12931); test: Inhibition of a panel of kinases, in vitro HotSpot kinase assay: SRC; conditions: D-compounds panel data; 1 μM ATP
Chain of SRC (P12931 whole entry): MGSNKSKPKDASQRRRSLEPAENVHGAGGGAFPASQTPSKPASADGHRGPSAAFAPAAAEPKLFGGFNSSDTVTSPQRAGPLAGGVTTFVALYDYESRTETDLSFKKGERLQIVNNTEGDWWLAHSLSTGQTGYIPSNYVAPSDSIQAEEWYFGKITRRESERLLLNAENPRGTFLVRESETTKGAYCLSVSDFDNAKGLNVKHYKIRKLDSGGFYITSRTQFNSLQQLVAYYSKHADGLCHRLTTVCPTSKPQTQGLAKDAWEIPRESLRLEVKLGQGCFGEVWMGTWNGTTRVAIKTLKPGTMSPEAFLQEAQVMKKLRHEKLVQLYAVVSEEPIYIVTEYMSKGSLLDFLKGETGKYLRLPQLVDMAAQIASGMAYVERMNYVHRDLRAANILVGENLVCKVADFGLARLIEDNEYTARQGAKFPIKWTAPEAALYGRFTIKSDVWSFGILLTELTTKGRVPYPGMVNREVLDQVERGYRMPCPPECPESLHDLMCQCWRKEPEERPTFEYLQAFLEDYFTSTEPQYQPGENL
Protocol: as §1

TEC = molecular target: T3, TEC (Homo sapiens, UniProt P42680); test: Inhibition of a panel of kinases, in vitro HotSpot kinase assay: TEC; conditions: D-compounds panel data; 1 μM ATP
T3 sequence (P42680 1-631): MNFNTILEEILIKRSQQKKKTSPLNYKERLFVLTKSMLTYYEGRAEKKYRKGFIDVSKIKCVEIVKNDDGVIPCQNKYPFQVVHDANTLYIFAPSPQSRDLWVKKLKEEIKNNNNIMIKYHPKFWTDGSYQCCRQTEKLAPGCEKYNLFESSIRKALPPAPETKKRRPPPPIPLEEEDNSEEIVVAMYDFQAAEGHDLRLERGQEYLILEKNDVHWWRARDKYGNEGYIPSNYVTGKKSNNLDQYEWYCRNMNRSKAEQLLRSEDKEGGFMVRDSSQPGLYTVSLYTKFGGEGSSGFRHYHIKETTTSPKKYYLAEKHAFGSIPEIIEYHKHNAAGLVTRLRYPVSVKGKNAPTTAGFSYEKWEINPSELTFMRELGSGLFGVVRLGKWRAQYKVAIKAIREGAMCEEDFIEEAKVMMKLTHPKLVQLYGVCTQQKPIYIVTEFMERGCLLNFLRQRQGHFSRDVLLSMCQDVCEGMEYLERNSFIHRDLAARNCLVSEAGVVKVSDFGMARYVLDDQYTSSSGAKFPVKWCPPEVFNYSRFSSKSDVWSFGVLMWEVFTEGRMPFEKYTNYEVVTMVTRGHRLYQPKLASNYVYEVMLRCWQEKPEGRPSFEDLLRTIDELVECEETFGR
Protocol: as §1

Row | SMILES | IC50 (JAK3) [nM] | IC50 (ITK) [nM] | IC50 (EGFR) [nM] | IC50 (SRC) [nM] | IC50 (TEC) [nM]
1 | C[C@@H]1[C@H](NC(=O)c2ccc(C(O)C(F)(F)F)cc2)CCCN1c1cnc(C(N)=O)c(Nc2cnn(C)c2)n1 (single isomer, unassigned) [Example D-249] | 1000 to 10000 | 100 to 1000 | 1000 to 10000 | 10 to 100 | ≤ 10
2 | C[C@@H]1[C@H](NC(=O)c2ccc(C3CC3)cc2Cl)CCCN1c1cnc(C(N)=O)c(Nc2cnn(C)c2)n1 [Example D-20, 5-[(2R,3R)-3-(2-chloro-4-cyclopropylbenzamido)-2-methylpiperidin-1-yl]-3-[(1-methyl-1H-pyrazol-4-yl)amino]pyrazine-2-carboxamide] | 1000 to 10000 | 1000 to 10000 | 1000 to 10000 | 100 to 1000 | 10 to 100
3 | C[C@@H]1[C@H](NC(=O)c2ccc(C3CC3)cn2)CCCN1c1cnc(C(N)=O)c(Nc2cnn(C)c2)n1 [Example D-21, 5-[(2R,3R)-3-(5-cyclopropylpyridine-2-amido)-2-methylpiperidin-1-yl]-3-[(1-methyl-1H-pyrazol-4-yl)amino]pyrazine-2-carboxamide] | 1000 to 10000 | 100 to 1000 | 1000 to 10000 | 10 to 100 | 10 to 100
4 | C[C@@H]1[C@H](NC(=O)c2ccc(C(C)(C)C)cc2)CCCN1c1cnc(C(N)=O)c(Nc2cnn(C)c2)n1 [Example D-22, 5-[(2R,3R)-3-(4-tert-butylbenzamido)-2-methylpiperidin-1-yl]-3-[(1-methyl-1H-pyrazol-4-yl)amino]pyrazine-2-carboxamide] | > 10000 | 1000 to 10000 | 1000 to 10000 | 100 to 1000 | 10 to 100
5 | C[C@@H]1[C@H](NC(=O)c2ccc(N(C)C)cc2)CCCN1c1cnc(C(N)=O)c(Nc2cnn(C)c2)n1 [Example D-24, 5-[(2R,3R)-3-[4-(dimethylamino)benzamido]-2-methylpiperidin-1-yl]-3-[(1-methyl-1H-pyrazol-4-yl)amino]pyrazine-2-carboxamide] | 1000 to 10000 | 100 to 1000 | 1000 to 10000 | 100 to 1000 | ≤ 10
6 | C[C@@H]1[C@H](NC(=O)c2ccc(C3CC3)cc2C(F)(F)F)CCCN1c1cnc(C(N)=O)c(Nc2cnn(C)c2)n1 [Example D-25, 5-[(2R,3R)-3-[4-cyclopropyl-2-(trifluoromethyl)benzamido]-2-methylpiperidin-1-yl]-3-[(1-methyl-1H-pyrazol-4-yl)amino]pyrazine-2-carboxamide] | 1000 to 10000 | 1000 to 10000 | 1000 to 10000 | 100 to 1000 | 10 to 100
7 | C[C@@H]1[C@H](NC(=O)c2cc(C(C)(C)C)n[nH]2)CCCN1c1cnc(C(N)=O)c(Nc2cnn(C)c2)n1 [Example D-244, 5-[(2R,3R)-3-(3-tert-butyl-1H-pyrazole-5-amido)-2-methylpiperidin-1-yl]-3-[(1-methyl-1H-pyrazol-4-yl)amino]pyrazine-2-carboxamide] | 100 to 1000 | 100 to 1000 | 1000 to 10000 | 10 to 100 | 10 to 100
8 | C[C@@H]1[C@H](NC(=O)c2ccc(C3CC3)c(O)c2)CCCN1c1cnc(C(N)=O)c(Nc2cnn(C)c2)n1 [Example D-245, 5-[(2R,3R)-3-(4-cyclopropyl-3-hydroxybenzamido)-2-methylpiperidin-1-yl]-3-[(1-methyl-1H-pyrazol-4-yl)amino]pyrazine-2-carboxamide] | 100 to 1000 | 100 to 1000 | 1000 to 10000 | 10 to 100 | ≤ 10

Other lines, results leading:

Row | IC50 (JAK3) [nM] | IC50 (ITK) [nM] | IC50 (EGFR) [nM] | IC50 (SRC) [nM] | IC50 (TEC) [nM] | SMILES
9 | 100 to 1000 | 100 to 1000 | 100 to 1000 | 10 to 100 | ≤ 10 | C[C@@H]1[C@H](NC(=O)c2ccc(C(O)C(F)(F)F)cc2)CCCN1c1cnc(C(N)=O)c(Nc2cnn(C)c2)n1 (single isomer, unassigned) [Example D-250]
10 | 100 to 1000 | 100 to 1000 | 100 to 1000 | 10 to 100 | ≤ 10 | C[C@@H]1[C@H](NC(=O)c2ccc(C(C)(O)CO)cc2)CCCN1c1cnc(C(N)=O)c(Nc2cnn(C)c2)n1 (single isomer, unassigned) [Example D-256]
11 | 100 to 1000 | 100 to 1000 | 100 to 1000 | 10 to 100 | ≤ 10 | C[C@@H]1[C@H](NC(=O)c2ccc(C(C)(O)CO)cc2)CCCN1c1cnc(C(N)=O)c(Nc2cnn(C)c2)n1 (single isomer, unassigned) [Example D-265]
12 | 100 to 1000 | 100 to 1000 | 100 to 1000 | 100 to 1000 | 10 to 100 | C[C@@H]1[C@H](NC(=O)c2cc3c(n2C)CC(C)(C)C3)CCCN1c1cnc(C(N)=O)c(Nc2cnn(C)c2)n1 [Example D-19, 3-[(1-methyl-1H-pyrazol-4-yl)amino]-5-[(2R,3R)-2-methyl-3-{1,5,5-trimethyl-1H,4H,5H,6H-cyclopenta[b]pyrrole-2-amido}piperidin-1-yl]pyrazine-2-carboxamide]
13 | 100 to 1000 | 100 to 1000 | 1000 to 10000 | 10 to 100 | ≤ 10 | C[C@@H]1[C@H](NC(=O)c2ccc(C3COC3)cc2)CCCN1c1cnc(C(N)=O)c(Nc2cnn(C)c2)n1 [Example D-23, 3-[(1-methyl-1H-pyrazol-4-yl)amino]-5-[(2R,3R)-2-methyl-3-[4-(oxetan-3-yl)benzamido]piperidin-1-yl]pyrazine-2-carboxamide]
14 | 100 to 1000 | 100 to 1000 | 1000 to 10000 | 10 to 100 | ≤ 10 | C[C@@H]1[C@H](NC(=O)c2ccc3ncsc3c2)CCCN1c1cnc(C(N)=O)c(Nc2cnn(C)c2)n1 [Example D-243, N-[(2R,3R)-1-{5-carbamoyl-6-[(1-methyl-1H-pyrazol-4-yl)amino]pyrazin-2-yl}-2-methylpiperidin-3-yl]-1,3-benzothiazole-6-carboxamide]

— patent US20210070748A1, “INHIBITORS OF BRUTONS TYROSINE KINASE” (Pharmacyclics LLC, priority 2015, published 2021)
